# Measurements taken from PubChem BioAssay AID248 (DTP/NCI, 2004).
# Several values for one entry are separate records, joined by “and”; a condition that tells them apart may be missing. Equal values may be shown once. Inconclusive results and toxic doses are left out.
# Test system: L1210 leukemia ip in BDF1 mice, survival T/C
# Test: NCI In Vivo Anticancer Drug Screen. Data for tumor model L1210 Leukemia (intraperitoneal) in B6D2F1 (BDF1) mice
# Conditions: endpoint: mean survival time, higher = longer survival
# Procedure, shortened: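 Transplanted-tumor mice were given test agent; controls received vehicle only. Survival readings from the two groups were divided (treated over control).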
# [1] = dose: 50.0 mg/kg/injection, schedule: Q01DX009 (ip), vehicle: saline with Tween-80
# [2] = dose: 100.0 mg/kg/injection, schedule: Q01DX009 (ip), vehicle: saline with Tween-80
# [3] = dose: 100.0 mg/kg/injection, schedule: Q04DX003 (ip), vehicle: Klucel (hydroxypropylcellulose) (HPC)
# [4] = dose: 200.0 mg/kg/injection, schedule: Q04DX003 (ip), vehicle: Klucel (hydroxypropylcellulose) (HPC)
# [5] = dose: 400.0 mg/kg/injection, schedule: Q04DX003 (ip), vehicle: Klucel (hydroxypropylcellulose) (HPC)
# [6] = dose: 100.0 mg/kg/injection, schedule: Q01DX001 (ip), vehicle: saline
# [7] = dose: 200.0 mg/kg/injection, schedule: Q01DX001 (ip), vehicle: saline
# [8] = dose: 400.0 mg/kg/injection, schedule: Q01DX001 (ip), vehicle: saline
# [9] = dose: 100.0 mg/kg/injection, schedule: Q01DX001 (ip), vehicle: other
# [10] = dose: 200.0 mg/kg/injection, schedule: Q01DX001 (ip), vehicle: other
# [11] = dose: 400.0 mg/kg/injection, schedule: Q01DX001 (ip), vehicle: other
# [12] = dose: 100.0 mg/kg/injection, schedule: Q04DX002 (ip), vehicle: Klucel (hydroxypropylcellulose) (HPC)
# [13] = dose: 200.0 mg/kg/injection, schedule: Q04DX002 (ip), vehicle: Klucel (hydroxypropylcellulose) (HPC)
# [14] = dose: 100.0 mg/kg/injection, schedule: Q01DX001 (ip), vehicle: carboxymethylcellulose (CMC)
# [15] = dose: 200.0 mg/kg/injection, schedule: Q01DX001 (ip), vehicle: carboxymethylcellulose (CMC)
# [16] = dose: 400.0 mg/kg/injection, schedule: Q01DX001 (ip), vehicle: carboxymethylcellulose (CMC)
# [17] = dose: 100.0 mg/kg/injection, schedule: Q04DX003 (ip), vehicle: saline with Tween-80
# [18] = dose: 200.0 mg/kg/injection, schedule: Q04DX003 (ip), vehicle: saline with Tween-80
# [19] = dose: 400.0 mg/kg/injection, schedule: Q04DX003 (ip), vehicle: saline with Tween-80
# [20] = dose: 200.0 mg/kg/injection, schedule: Q01DX009 (ip), vehicle: saline with Tween-80
# [21] = dose: 400.0 mg/kg/injection, schedule: Q01DX009 (ip), vehicle: saline with Tween-80
# [22] = dose: 100.0 mg/kg/injection, schedule: Q04DX002 (ip), vehicle: saline
# [23] = dose: 200.0 mg/kg/injection, schedule: Q04DX002 (ip), vehicle: saline
# [24] = dose: 400.0 mg/kg/injection, schedule: Q04DX002 (ip), vehicle: saline
smiles,measurement,setting,value
CN=C(N)c1ccc(NC(=O)c2ccc(C(=O)Nc3ccc(C(N)=NC)cc3)c(Cl)c2)cc1,T/C,"dose: 1.88 mg/kg/injection, schedule: Q01DX Z (ip), vehicle: saline",117 % of control
same,T/C,"dose: 7.5 mg/kg/injection, schedule: Q01DX Z (ip), vehicle: saline",252 % of control
same,T/C,"dose: 15.0 mg/kg/injection, schedule: Q01DX Z (ip), vehicle: saline",183 % of control
same,T/C,"dose: 60.0 mg/kg/injection, schedule: Q01DX Z (oral), vehicle: saline",105 % of control
same,T/C,"dose: 62.5 mg/kg/injection, schedule: Q## X010 (oral), vehicle: saline",102 % of control
same,T/C,"dose: 120.0 mg/kg/injection, schedule: Q01DX Z (oral), vehicle: saline",102 % of control
same,T/C,"dose: 125.0 mg/kg/injection, schedule: Q## X010 (oral), vehicle: saline",98 % of control
same,T/C,"dose: 240.0 mg/kg/injection, schedule: Q01DX Z (oral), vehicle: saline",103 % of control
same,T/C,"dose: 500.0 mg/kg/injection, schedule: Q## X010 (oral), vehicle: saline",102 % of control
Cc1nc(Cl)c(C(N)=O)nc1C,T/C,"dose: 25.0 mg/kg/injection, schedule: Q01DX009 (ip), vehicle: saline with Tween-80",91 % of control
same,T/C,[1],96 % of control
same,T/C,[2],96 % of control and 97 % of control
COC(=O)C1C2CCc3cc(OC)ccc3C2CCC1(C)C(=O)O (stereo not drawn),T/C,[3],95 % of control
same,T/C,[4],95 % of control
same,T/C,[5],91 % of control
N#Cc1ccc(-n2cccc2)cc1,T/C,"dose: 100.0 mg/kg/injection, schedule: Q01DX001 (ip), vehicle: steriod suspending solution",100 % of control
same,T/C,"dose: 200.0 mg/kg/injection, schedule: Q01DX001 (ip), vehicle: steriod suspending solution",100 % of control
same,T/C,"dose: 400.0 mg/kg/injection, schedule: Q01DX001 (ip), vehicle: steriod suspending solution",101 % of control
c1cncc(C2SCCCS2)c1,T/C,"dose: 100.0 mg/kg/injection, schedule: Q04DX002 (ip), vehicle: DMSO",87 % of control
same,T/C,"dose: 200.0 mg/kg/injection, schedule: Q04DX002 (ip), vehicle: DMSO",87 % of control
CC(=O)Nc1ccc(S(=O)(=O)NC2(c3ccccc3)C(=O)N(C)C(=O)N(C)C2=O)cc1,T/C,[6],91 % of control
same,T/C,[7],94 % of control
same,T/C,[8],103 % of control
COc1cc(N)c(OC)nn1,T/C,[9],105 % of control
same,T/C,[10],96 % of control
same,T/C,[11],93 % of control
NCC(O)c1ccc(OCc2ccccc2)cc1 (stereo not drawn),T/C,[6],94 % of control
same,T/C,[7],103 % of control
same,T/C,[8],108 % of control
CN(C)NCC(O)COc1ccc(Cl)cc1 (stereo not drawn),T/C,[12],103 % of control
same,T/C,[13],100 % of control
CCOC(=O)NN(C(=O)OCC)c1c(NN)n(C)c(=O)n(C)c1=O,T/C,"dose: 75.0 mg/kg/injection, schedule: Q04DX003 (ip), vehicle: saline",107 % of control
same,T/C,"dose: 150.0 mg/kg/injection, schedule: Q04DX003 (ip), vehicle: saline",93 % of control
same,T/C,"dose: 300.0 mg/kg/injection, schedule: Q04DX003 (ip), vehicle: saline",91 % of control
CSc1nc(N)c(N=Nc2ccc(S(=O)(=O)Nc3ccccn3)cc2)c(=O)[nH]1,T/C,[14],92 % of control
same,T/C,[15],101 % of control
same,T/C,[16],95 % of control
Cc1ncc(CO)c(/C=N/OCc2nnc(Nc3ccccc3)s2)c1O,T/C,[17],92 % of control
same,T/C,[18],101 % of control
same,T/C,[19],106 % of control
COc1cccc(C2NC(=O)N3C(c4cccc(OC)c4)NC(=O)N23)c1 (stereo not drawn),T/C,"dose: 100.0 mg/kg/injection, schedule: Q01DX009 (ip), vehicle: gum acacia",98 % of control
same,T/C,"dose: 100.0 mg/kg/injection, schedule: Q04DX003 (ip), vehicle: gum acacia",97 % of control
same,T/C,"dose: 200.0 mg/kg/injection, schedule: Q01DX009 (ip), vehicle: gum acacia",91 % of control
same,T/C,"dose: 200.0 mg/kg/injection, schedule: Q04DX003 (ip), vehicle: gum acacia",95 % of control
same,T/C,"dose: 400.0 mg/kg/injection, schedule: Q01DX009 (ip), vehicle: gum acacia",91 % of control
O=C(Nc1cc([N+](=O)[O-])ccc1F)N(Cc1ccccc1)c1ccccc1,T/C,[3],97 % of control
same,T/C,[4],92 % of control
same,T/C,[5],87 % of control
O=[N+]([O-])c1ccccc1SSc1ccccc1[N+](=O)[O-],T/C,"dose: 50.0 mg/kg/injection, schedule: Q01DX001 (ip), vehicle: carboxymethylcellulose (CMC)",105 % of control
same,T/C,[14],94 % of control
same,T/C,[2],95 % of control
same,T/C,[15],109 % of control
same,T/C,[20],98 % of control
same,T/C,[16],100 % of control
same,T/C,[21],98 % of control
CCCCCCCCCCCCNC(=O)C[N+](C)(C)Cc1ccc2c(c1)CCCC2,T/C,"dose: 2.5 mg/kg/injection, schedule: Q01DX009 (ip), vehicle: saline with Tween-80",106 % of control
same,T/C,"dose: 5.0 mg/kg/injection, schedule: Q01DX009 (ip), vehicle: saline with Tween-80",94 % of control
O=C(NC(=S)Nc1ccc([N+](=O)[O-])cc1Cl)c1ccccc1F,T/C,[12],91 % of control
same,T/C,[13],105 % of control
same,T/C,"dose: 400.0 mg/kg/injection, schedule: Q04DX002 (ip), vehicle: Klucel (hydroxypropylcellulose) (HPC)",105 % of control
O=c1[nH]nc(SCc2ccccc2)c(=O)n1C(c1ccccc1)c1ccccc1,T/C,[9],90 % of control
same,T/C,[10],90 % of control
same,T/C,[11],98 % of control
CC(=O)Nc1ccc(OC(=O)c2cccc([N+](=O)[O-])c2)cc1,T/C,[6],107 % of control
same,T/C,[7],101 % of control
same,T/C,[8],104 % of control
Cc1cccc(NC(=S)N(CCC#N)C2CCCCC2)c1,T/C,[14],95 % of control
same,T/C,[15],90 % of control
same,T/C,[16],101 % of control
CCCC(=O)OC(OC(=O)CCC)c1ccco1,T/C,[6],92 % of control
same,T/C,[7],109 % of control
same,T/C,[8],109 % of control
CC(C)N(SSN(C(C)C)C(C)C)C(C)C,T/C,[17],95 % of control
same,T/C,[18],100 % of control
same,T/C,[19],89 % of control
CC(C)(C(=O)O)C(=O)O,T/C,[6],103 % of control
same,T/C,[7],106 % of control
Cc1ccc(S(=O)(=O)OCC2COC(C(Cl)(Cl)Cl)O2)cc1 (stereo not drawn),T/C,[2],94 % of control
same,T/C,[17],106 % of control
same,T/C,[20],92 % of control
same,T/C,[18],113 % of control
same,T/C,[21],94 % of control
same,T/C,[19],110 % of control
Nc1ccc(C(=O)O)cc1,T/C,[3],96 % of control
same,T/C,[4],106 % of control
same,T/C,[5],113 % of control
O=C(CNC(=O)Nc1ccc(Cl)c(Cl)c1)N/N=C/C=C/c1ccccc1,T/C,[1],96 % of control
same,T/C,[2],96 % of control
same,T/C,[20],93 % of control
O=C(O)C(c1ccccc1)c1ccccc1,T/C,"dose: 100.0 mg/kg/injection, schedule: Q01DX001 (ip), vehicle: Klucel (hydroxypropylcellulose) (HPC)",97 % of control
same,T/C,[22],97 % of control
same,T/C,"dose: 200.0 mg/kg/injection, schedule: Q01DX001 (ip), vehicle: Klucel (hydroxypropylcellulose) (HPC)",101 % of control
same,T/C,[23],97 % of control
same,T/C,"dose: 400.0 mg/kg/injection, schedule: Q01DX001 (ip), vehicle: Klucel (hydroxypropylcellulose) (HPC)",109 % of control
same,T/C,[24],87 % of control
N#Cc1cc(Cl)cn1O,T/C,"dose: 100.0 mg/kg/injection, schedule: Q04DX002 (ip), vehicle: other",91 % of control
same,T/C,"dose: 200.0 mg/kg/injection, schedule: Q04DX002 (ip), vehicle: other",99 % of control
CCCN(CCC)/N=N/c1nc[nH]c1C(N)=O,T/C,"dose: 100.0 mg/kg/injection, schedule: Q01DX001 (ip), vehicle: saline with Tween-80",95 % of control
same,T/C,[2],97 % of control
same,T/C,[17],101 % of control
same,T/C,"dose: 200.0 mg/kg/injection, schedule: Q01DX001 (ip), vehicle: saline with Tween-80",98 % of control
same,T/C,[20],106 % of control
same,T/C,[18],104 % of control
same,T/C,"dose: 400.0 mg/kg/injection, schedule: Q01DX001 (ip), vehicle: saline with Tween-80",113 % of control
same,T/C,[19],112 % of control
CN(C)CCN=C(N)N[N+](=O)[O-],T/C,[22],110 % of control
same,T/C,[23],96 % of control
same,T/C,[24],100 % of control
